In patent US20150216992A1, “EXTENDED RELEASE COMPOSITIONS OF AN AMINOALKYL NITRATE” (CARDIOLYNX AG, priority 2012, published 2015):

Legend:
[1] = test system: L-NAME treated SHR rats; assay: Rat model for pharmacological activity using blood pressure as a marker; assay type: in vivo; details: AEN tosylate 0.5 mg/kg/h infused, valsartan 5 mg/kg single daily dose; for effect on blood pressure: after 1 and 2 weeks
Experimental: FIG. 5: Pharmacological activity of AEN tosylate, valsartan and AEN tosylate/valsartan combination on blood pressure in L-NAME treated SHR rats.
Column 1: AEN tosylate (0.5 mg/kg/h), column 2: valsartan (single dose 5 mg/kg), column 3: AEN tosylate (0.5 mg/kg/h) plus valsartan (single daily dose 5 mg/kg).
Hatched bars: blood pressure lowering versus control after 1 week, black solid bars after 2 weeks. Vertical axis: reduction in blood pressure in mm Hg
SHR rats were treated with L-NAME to increase blood pressure. Following treatment with L-NAME rats were treated continuously for two weeks with either AEN tosylate (1) with a continuously infused dose (using an osmotic pump) of 0.5 mg/kg/h (column 1 in FIG. 5), valsartan at 5 mg/kg, single daily dose (column 2 in FIG. 5) or AEN tosylate plus valsartan (combined doses, group 3 in FIG. 5). Effects on blood pressure were measured after 1 week and after 2 weeks of treatment.

[2] = in vivo; cited from earlier work
[3] = in vivo; cited from earlier work; remark: listed apart in the source

SMILES | effect on blood pressure [1] | half-live [2] | development of nitrate tolerance [3] | NO-tolerance induction ([1]; two weeks continuous treatment)
CCCCC(=O)N(Cc1ccc(-c2ccccc2-c2nnn[nH]2)cc1)[C@H](C(=O)O)C(C)C [valsartan] | lowered blood pressure | – | – | –
NCCO[N+](=O)[O-] [AEN, 2-aminoethyl nitrate] | – | approx. 2 hours | no development of nitrate tolerance | –
Cc1ccc(S(=O)(=O)O)cc1.NCCO[N+](=O)[O-] [AEN tosylate, 2-aminoethylnitrate (aen) tosylate] | continued pharmacological activity | – | – | without showing signs of NO-tolerance induction
